The values that follow come from patent publication US20190367567A1 (priority 2016, published 2019).

The term IC50 denotes the concentration at which inhibition is half-maximal. Read a low IC50 as greater potency in that assay.

The target of series [1] is H1 HA of A/Puerto Rico/8/1934 H1N1 influenza virus (influenza A virus A/Puerto Rico/8/1934 H1N1) (UniProt P03452). Put plainly: cell-based or functional assay.
Another series concerns PR8 virus. On the set-up: species or system influenza A virus.
Series [2] deals with human H1N1 influenza A virus A/Puerto Rico/8/1934 (PR8). The following applies: human virus A/Puerto Rico/8/1934 (PR8).

Where a SMILES comes first, the peptide text is derived from it.

Regarding `CC[C@H](C)[C@H](NC(=O)CNC(=O)[C@H](CC(C)C)NC(=O)CNC(=O)[C@H](C)NC(=O)CNC(=O)[C@H](CCCCN)NC(=O)[C@H](C)NC(=O)[C@@H](NC(=O)CNC(=O)[C@@H](NC(=O)[C@H](C)NC(=O)[C@@H](NC(=O)[C@H](CC(=O)O)NC(=O)[C@H](CCCCN)NC(=O)[C@H](CC(C)C)NC(=O)[C@H](CCCCN)NC(=O)[C@@H](NC(=O)[C@@H](NC(=O)[C@H](Cc1ccccc1)NC(=O)[C@@H](N)CO)C(C)C)[C@@H](C)O)C(C)C)[C@@H](C)CC)C(C)C)C(=O)N[C@@H](CC(C)C)C(=O)N[C@@H](CCCCN)C(=O)N[C@H](C(=O)N[C@@H](CC(C)C)C(=O)N[C@H](C(=O)N[C@@H](CS)C(=O)N[C@@H](CCCCN)C(=O)N[C@@H](CC(C)C)C(=O)N[C@@H](CC(=O)O)C(=O)N[C@@H](CC(N)=O)C(=O)N[C@@H](CO)C(=O)N[C@@H](CS)C(=O)N[C@@H](C)C(=O)O)[C@@H](C)O)[C@@H](C)O` [Peptide 28] (H-SFVTKLKDVAIGVAKGAGLGILKTLTCKLDNSCA-OH), the hemolytic activity result in the series on human erythrocytes (at 10 μM) is “hemolytic activity”.
For Urumin (peptide), in series [1], the IC50, plaque assay against PR8 virus turned out to be 3.8 µM.
As to OVA257-264 peptide [OVA peptide], the “integrity of virus particles by electron microscopy” value with PR8 virus is reported as “appear intact”.
In series [2], `CC[C@H](C)[C@H](N)C(=O)N1CCC[C@H]1C(=O)N[C@@H](CC(C)C)C(=O)N[C@@H](CCCNC(=N)N)C(=O)NCC(=O)N[C@@H](C)C(=O)N[C@@H](Cc1ccccc1)C(=O)N[C@H](C(=O)N[C@@H](CC(N)=O)C(=O)NCC(=O)N[C@@H](CCCNC(=N)N)C(=O)N[C@@H](Cc1c[nH]c2ccccc12)C(=O)N[C@@H](CC(=O)O)C(=O)N[C@@H](CO)C(=O)N[C@@H](CCC(N)=O)C(=O)N[C@@H](CS)C(=O)N[C@@H](Cc1c[nH]cn1)C(=O)N[C@@H](CCCNC(=N)N)C(=O)N[C@@H](Cc1ccccc1)C(=O)N[C@@H](CO)C(=O)N[C@@H](CC(N)=O)C(=O)NCC(=O)N[C@@H](C)C(=O)N[C@H](C(=O)N[C@@H](C)C(=O)N[C@@H](CS)C(=O)N[C@@H](C)C(=O)O)[C@@H](C)CC)[C@@H](C)CC` [Urumin] (H-IPLRGAFINGRWDSQCHRFSNGAIACA-OH) returned an IC50 of 3.8 µM. For the same molecule, in the series with human erythrocytes, the “concentration reaching a 20% level of toxicity” value came to 1430 µM and the “toxicity to human erythrocytes (hemolysis)” value is reported as “no toxicity”.
